Measured values published in US6589520B1, “Treatment of psoriasis, allergies and auto-immune disorders of the skin with cis-6-hexadecenoic acid” (Beiersdorf AG, priority 1997, dated 2003).
Where a name gives a salt, the structure may show the parent alone.

Tests used:
solubility in water = format: physicochemical
Experimental: If salts are sparingly soluble in water, they can be administered in the form of suspensions. […] For example, salts are preferably injected intravenously or intramuscularly in the form of an aqueous solution, such as physiological saline solution. The ampoules contain, for example, 2.5 mg of the fatty acid salt per 5 ml of solution. Ampoules containing, for example, 45 mg of fatty acid salt per milliliter of solution can also be prepared.

macrophage = macrophage differentiation test; format: cell-based
Description: This is of importance in the prophylaxis of processes such as, for example, psoriasis or atopy or allergies or auto-immune disorders.

| solubility in water (solubility in water) | SMILES | anti-inflammatory macrophage-stimulating potency (macrophage) |
| --- | --- | --- |
| particularly good solubility in water | CCCCCCC/C=C\CCCCCCCC(=O)O [sodium salt of cis-9-heptadecenoic acid, cis-9-heptadecenoic acid] | – |
| – | CCCCCCCCC/C=C\CCCCC(=O)O [cis-6-hexadecenoic acid] | showed an anti-inflammatory macrophage-stimulating potency |
